Source: patent US9834773B2, “Methods and means for metabolic engineering and improved product formation by micro-organisms” (Universiteit Leiden, priority 2006, dated 2017)

Target: DasR (Streptomyces coelicolor, UniProt Q9K492)
Experiment: EMSA binding interference experiment: ability of compounds to interfere with binding of DasR to the nagB and crr promoters
Conditions: for effect on formation of the complex of DasR with the nagB promoter (EMSA): 10 nM fluorescent probe, 3 μM purified DasR, 500-fold excess of non-specific DNA, 50, 100, 150, and 200 mM compound; for effect on formation of the complex of DasR with the crr promoter region (EMSA): data not shown
Description: FIG. 12. […] EMSAs were performed with 10 nM fluorescent probe, 3 μM purified DasR, and 500-fold excess of non-specific DNA.
EMSAs were performed with fluorescent probes (10 nM) with an ALF express sequencer (Filee et al., 2001). Purified DasR (3 μM) and 1000-fold excess of non-specific DNA were used in the reaction mixture. Predicted cis-acting elements were taken from the promoter regions of actII-ORF4 (SCO5085; 5′-[…]-3′ (SEQ ID NO:530)), and redZ (SCO5881; 5′-[…]-3′ (SEQ ID NO:531)). Known cis-acting elements upstream of crr (SCO1390; […]-3′ (SEQ ID NO:532)), and crp (SCO3571; 5′-[…]-3′ (SEQ ID NO:533)) were used as positive and negative controls, respectively. The 16 nt dre sites are underlined.
A pivotal question is what is the effector molecule that modulates DasR? As shown in here, many of the targets for DasR relate to the generation (chitinolytic system), transport (PTS^GlcNAc), and metabolism (glycolysis via fructose 6-P) of N-acetylglucosamine. We therefore looked for the inducer among the intermediate molecules that gravitate around aminosugar metabolism. A binding interference experiment was set up where the ability of compounds to interfere with binding of dasR to the nagB and crr promoters was tested. […] The finding that glucosamine-6-P serves as an effector of DasR is explained by its central position at the metabolic crossroads between (GlcNAc)n extracellular degradation, N-acetylglucosamine transport and intracellular metabolism, lipid and nitrogen metabolism, glycolysis, and peptidoglycan synthesis (FIG. 13).

Sequence of DasR (Q9K492 whole entry): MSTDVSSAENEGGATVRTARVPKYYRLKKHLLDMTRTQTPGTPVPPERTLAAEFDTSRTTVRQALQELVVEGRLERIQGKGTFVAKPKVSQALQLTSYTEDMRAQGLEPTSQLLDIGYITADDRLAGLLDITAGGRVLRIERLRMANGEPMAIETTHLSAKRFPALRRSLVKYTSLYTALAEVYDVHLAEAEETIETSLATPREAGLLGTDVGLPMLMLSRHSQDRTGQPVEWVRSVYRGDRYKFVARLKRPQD

Row | Compound | effect on formation of the complex of DasR with the nagB promoter (EMSA) | effect on formation of the complex of DasR with the crr promoter region (EMSA) | effect on formation of the complex of DasR with the nagB promoter (EMSA) (listed as GlcN-6-P)
1 | O=C(CO)[C@@H](O)[C@H](O)[C@H](O)COP(=O)(O)O [fructose 6-P] | it was the only of the compounds tested that prevented the formation of a complex | it was the only of the compounds tested that prevented the formation of a complex | 
2 | CC(=O)SCCNC(=O)CCNC(=O)[C@H](O)C(C)(C)COP(=O)(O)OP(=O)(O)OC[C@H]1O[C@@H](n2cnc3c(N)ncnc32)[C@H](O)[C@@H]1OP(=O)(O)O [acetyl-CoA] | it was the only of the compounds tested that prevented the formation of a complex | it was the only of the compounds tested that prevented the formation of a complex | 
3 | NC(=O)CC[C@H](N)C(=O)O [glutamine] | it was the only of the compounds tested that prevented the formation of a complex | it was the only of the compounds tested that prevented the formation of a complex | 
4 | N[C@@H](CCC(=O)O)C(=O)O [glutamate] | it was the only of the compounds tested that prevented the formation of a complex | it was the only of the compounds tested that prevented the formation of a complex | 
5 | N[C@H]1C(O)O[C@H](COP(=O)(O)O)[C@@H](O)[C@@H]1O (stereo partly shown) [glucosamine-6-P, glucosamine-6-phosphate] | prevented the formation of a complex | prevented the formation of a complex | release of DasR from the dre site
6 | CC(=O)N[C@H]1C(O)O[C@H](COP(=O)(O)O)[C@@H](O)[C@@H]1O (stereo partly shown) [N-acetylglucosamine-6-P] | it was the only of the compounds tested that prevented the formation of a complex | it was the only of the compounds tested that prevented the formation of a complex | 
